Test results from patent publication US20240067693A1, “POLYPEPTIDES AND USES THEREOF” (MEDIMMUNE LIMITED, priority 2020, published 2024).
Numbered stars: 1 amine (or outer) side, 2 acyl side, 3 side chain; on linkers, the order of the positions; unused ones are H or OH. Bridge positions count the residues as written; N and C are the ends. Square brackets hold non-standard residues; d marks the D form. Side chains are listed from the residue outwards. Peptide text beside a SMILES is read from it. * marks the point of attachment. C20 diacid = O=C(O)CCCCCCCCCCCCCCCCCCC(=O)*; C18 diacid = O=C(O)CCCCCCCCCCCCCCCCC(=O)*; γGlu = O=C(O)[C@H](CCC(=O)[*:2])N[*:1]; Aib = CC(C)(N)C(=O)O

Columns and labels:
[1] = biological target: T1, human calcitonin receptor (hCTR) (Homo sapiens, UniProt P30988); assay: cAMP production in 1321N1 cells with stable recombinant expression of human calcitonin receptor (hCTR); assay type: cell-based; settings: cAMP, 1321N1 cells, assay buffer with 0.1% BSA; read-out: EC50 (pM) hCTR
T1 construct: expressed in transfected cells
T1 sequence (P30988 25-474): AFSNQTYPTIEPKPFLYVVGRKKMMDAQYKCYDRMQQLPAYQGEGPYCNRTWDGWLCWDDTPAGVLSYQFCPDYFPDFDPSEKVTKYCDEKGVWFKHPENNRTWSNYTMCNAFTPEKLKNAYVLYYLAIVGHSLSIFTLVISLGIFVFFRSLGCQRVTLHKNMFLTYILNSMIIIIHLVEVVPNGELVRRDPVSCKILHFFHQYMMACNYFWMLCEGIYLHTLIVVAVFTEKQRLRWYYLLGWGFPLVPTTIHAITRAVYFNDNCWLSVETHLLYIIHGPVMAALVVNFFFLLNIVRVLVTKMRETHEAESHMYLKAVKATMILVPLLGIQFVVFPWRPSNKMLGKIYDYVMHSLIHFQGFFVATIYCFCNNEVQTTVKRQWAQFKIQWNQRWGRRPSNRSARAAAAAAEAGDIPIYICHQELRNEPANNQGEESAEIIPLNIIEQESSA
How it was run: (§1)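 Thawed cells in HBSS/0.1% BSA/25 mM HEPES pH 7.4 with 0.5 mM IBMX were incubated with peptides 30 min at room temperature; cAMP read by HTRF. EC50 from 4-parameter fit of % activation relative to maximal amylin or calcitonin effect.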

[2] = biological target: T2, human amylin receptor (calcitonin receptor co-expressed with receptor activity modifying protein, RAMP3) (hAMYR3) (Homo sapiens, UniProt O60896+P30988); assay: cAMP production in 1321N1 cells with stable recombinant expression of human amylin receptor (hAMYR3); assay type: cell-based; settings: for Ratio (selectivity hAMYR vs hCTR, ratio of EC50 values at the two receptors): EC50 hCTR / EC50 hAMYR3; for EC50: cAMP, 1321N1 cells, assay buffer with 0.1% BSA, read-out: EC50 (pM) hAMYR3
T2 construct: expressed in transfected cells
T2 sequence (P30988 25-474): T1 sequence (P30988 25-474)
T2 sequence (O60896 24-148 partner): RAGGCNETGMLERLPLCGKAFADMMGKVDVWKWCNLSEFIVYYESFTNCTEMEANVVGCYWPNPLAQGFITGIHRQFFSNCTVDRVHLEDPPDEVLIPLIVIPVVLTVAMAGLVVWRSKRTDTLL
How it was run: as §1

EC50 [1] [pM]	Ratio (selectivity hAMYR vs hCTR, ratio of EC50 values at the two receptors) [2]	EC50 [2] [pM]	Compound
792	2	417	CC[C@H](C)[C@H](NC(=O)[C@H](CO)NC(=O)[C@H](Cc1c[nH]cn1)NC(=O)[C@@H](NC(=O)[C@H](CC(C)C)NC(=O)[C@H](Cc1ccccc1)NC(=O)[C@H](CC(N)=O)NC(=O)[C@H](C)NC(=O)[C@H](CC(C)C)NC(=O)[C@H](CCCNC(=N)N)NC(=O)[C@H](CCC(N)=O)NC(=O)[C@@H](NC(=O)[C@H](C)NC(=O)[C@@H]1CSSC[C@H](NC(=O)[C@@H](N)CCCCNC(=O)CC[C@H](NC(=O)CC[C@H](NC(=O)CCCCCCCCCCCCCCCCCCC(=O)O)C(=O)O)C(=O)O)C(=O)N[C@@H](CC(N)=O)C(=O)N[C@@H]([C@@H](C)CC)C(=O)N[C@@H](C)C(=O)N[C@@H]([C@@H](C)O)C(=O)N1)[C@@H](C)O)C(C)C)C(=O)N[C@@H](C)C(=O)N[C@@H](CC(N)=O)C(=O)N[C@@H](Cc1ccccc1)C(=O)NCC(=O)N1CCC[C@H]1C(=O)N[C@H](C(=O)N[C@@H](CC(C)C)C(=O)N1CCC[C@H]1C(=O)N1CCC[C@H]1C(=O)N[C@H](C(=O)N[C@@H](CC(N)=O)C(=O)N[C@H](C(=O)NCC(=O)N[C@@H](CO)C(=O)N[C@@H](CCCNC(=N)N)C(=O)N[C@H](C(=O)N[C@@H](Cc1ccc(O)cc1)C(N)=O)[C@@H](C)O)C(C)C)[C@@H](C)O)[C@@H](C)CC [Peptide 118] (H-K([γGlu-γGlu-C20 diacid])CNIATCATQRLANFLVHSIANFGPILPPTNVGSRTY-NH2; disulfide 2-7; N-terminus assumed)
6340	11	599	CC[C@H](C)[C@H](NC(=O)[C@@H]1CCCN1C(=O)CNC(=O)[C@H](Cc1ccccc1)NC(=O)[C@H](CC(N)=O)NC(=O)C(C)(C)NC(=O)[C@H](CO)NC(=O)[C@H](CO)NC(=O)[C@H](Cc1c[nH]cn1)NC(=O)[C@@H](NC(=O)[C@H](CC(C)C)NC(=O)[C@H](Cc1ccccc1)NC(=O)[C@H](CC(N)=O)NC(=O)[C@H](C)NC(=O)[C@H](CC(C)C)NC(=O)[C@H](CCCNC(=N)N)NC(=O)[C@H](CCC(N)=O)NC(=O)[C@@H](NC(=O)[C@H](C)NC(=O)[C@@H]1CSSC[C@H](NC(=O)[C@H](CCCCN)NC(=O)[C@@H](N)CCCCNC(=O)CC[C@H](NC(=O)CCCCCCCCCCCCCCCCC(=O)O)C(=O)O)C(=O)N[C@@H](CC(N)=O)C(=O)N[C@@H]([C@@H](C)O)C(=O)N[C@@H](C)C(=O)N[C@@H]([C@@H](C)O)C(=O)N1)[C@@H](C)O)C(C)C)C(=O)N[C@@H](CC(C)C)C(=O)N1CCC[C@H]1C(=O)N1CCC[C@H]1C(=O)N[C@H](C(=O)N[C@@H](CC(N)=O)C(=O)N[C@H](C(=O)NCC(=O)N[C@@H](CO)C(=O)N[C@@H](CC(N)=O)C(=O)NC(C)(C)C(=O)N[C@@H](Cc1ccc(O)cc1)C(N)=O)C(C)C)[C@@H](C)O [Peptide 83, K(γE-C18diacid)K[CNTATC]ATQRLANFLVHSS(Aib)NFGPILPPTNVGSN(Aib)Y-amide] (H-K([γGlu-C18 diacid])KCNTATCATQRLANFLVHSS[Aib]NFGPILPPTNVGSN[Aib]Y-NH2; disulfide 3-8; N-terminus assumed)
725	5.3	138	CC[C@H](C)[C@H](NC(=O)[C@@H]1CCCN1C(=O)CNC(=O)[C@H](Cc1ccccc1)NC(=O)[C@H](CC(N)=O)NC(=O)[C@H](CC(N)=O)NC(=O)[C@H](CO)NC(=O)[C@H](CO)NC(=O)[C@H](Cc1c[nH]cn1)NC(=O)C(C)(C)NC(=O)[C@H](CC(C)C)NC(=O)[C@H](Cc1ccccc1)NC(=O)[C@H](Cc1c[nH]cn1)NC(=O)[C@H](C)NC(=O)[C@H](CC(C)C)NC(=O)[C@H](CCCNC(=N)N)NC(=O)[C@H](CCC(N)=O)NC(=O)[C@@H](NC(=O)[C@H](C)NC(=O)[C@@H]1CSSC[C@H](NC(=O)[C@@H](N)CCCCNC(=O)CC[C@H](NC(=O)CCCCCCCCCCCCCCCCC(=O)O)C(=O)O)C(=O)N[C@@H](CC(N)=O)C(=O)N[C@@H]([C@@H](C)O)C(=O)N[C@@H](C)C(=O)N[C@@H]([C@@H](C)O)C(=O)N1)[C@@H](C)O)C(=O)N[C@@H](CC(C)C)C(=O)N1CCC[C@H]1C(=O)N1CCC[C@H]1C(=O)N[C@H](C(=O)N[C@@H](CC(N)=O)C(=O)N[C@H](C(=O)NCC(=O)N[C@@H](CO)C(=O)N[C@@H](CC(N)=O)C(=O)N[C@H](C(=O)N[C@@H](Cc1ccc(O)cc1)C(N)=O)[C@@H](C)O)C(C)C)[C@@H](C)O [Peptide 144] (H-K([γGlu-C18 diacid])CNTATCATQRLAHFL[Aib]HSSNNFGPILPPTNVGSNTY-NH2; disulfide 2-7; N-terminus assumed)
4010	30	132	CC[C@H](C)[C@H](NC(=O)[C@@H]1CCCN1C(=O)CNC(=O)[C@H](Cc1ccccc1)NC(=O)[C@H](CC(N)=O)NC(=O)C(C)(C)NC(=O)[C@H](CO)NC(=O)[C@H](CO)NC(=O)[C@H](Cc1c[nH]cn1)NC(=O)[C@@H](NC(=O)[C@H](CC(C)C)NC(=O)[C@H](Cc1ccccc1)NC(=O)[C@H](CC(N)=O)NC(=O)[C@H](C)NC(=O)[C@H](CC(C)C)NC(=O)[C@H](CCCNC(=N)N)NC(=O)[C@H](CCC(N)=O)NC(=O)[C@@H](NC(=O)[C@H](C)NC(=O)[C@@H]1CSSC[C@H](NC(=O)[C@@H](N)CCCCNC(=O)CC[C@H](NC(=O)CC[C@H](NC(=O)CCCCCCCCCCCCCCCCC(=O)O)C(=O)O)C(=O)O)C(=O)N[C@@H](CC(N)=O)C(=O)N[C@@H]([C@@H](C)O)C(=O)N[C@@H](C)C(=O)N[C@@H]([C@@H](C)O)C(=O)N1)[C@@H](C)O)C(C)C)C(=O)N[C@@H](CC(C)C)C(=O)N1CCC[C@H]1C(=O)N1CCC[C@H]1C(=O)N[C@H](C(=O)N[C@@H](CCCNC(=N)N)C(=O)N[C@H](C(=O)NCC(=O)N[C@@H](CO)C(=O)N[C@@H](CC(N)=O)C(=O)N[C@H](C(=O)N[C@@H](Cc1ccc(O)cc1)C(N)=O)[C@@H](C)O)C(C)C)[C@@H](C)O [Peptide 67, K(γE-γE-C18diacid)[CNTATC]ATQRLANFLVHSS(Aib)NFGPILPPTRVGSNTY-amide] (H-K([γGlu-γGlu-C18 diacid])CNTATCATQRLANFLVHSS[Aib]NFGPILPPTRVGSNTY-NH2; disulfide 2-7; N-terminus assumed)
